One test has as its system HSV-2 (MS strain). Nature of the test: Anti-HSV-2 activity (plaque formation inhibition in human fetal lung fibroblasts). Format: cell-based, herpes simplex virus type 2. The note with it: Human alphaherpesvirus 2, Fibroblast, 50% inhibition of plaque formation, human fibroblasts derived from fetal lungs, 2-3 days at 37° C., read-out: ED50 HSV-2. As for the experimental part: (§1) 1. Human fibroblasts derived from fetal lungs were subjected to subculturing in Eagle MEM supplemented with 10% semi-fetal calf serum (Mitsubishi Chemical Corporation) at a 1:2-4 split every 4 days. 2. A suspension of cells obtained by splitting their parent cells (1:2) was seeded in a 12-well multi-plate (2 ml/well), followed by culturing for 4-5 days at 37° C. in a CO2 -incubator. 3. The culture liquid was discarded, and Hanks' MEM (250 μl) containing 50-150 PFU of VR-3 strain of HSV-1 or MS strain of HSV-2 was inoculated, and the virus was allowed to be adsorbed for 30 minutes at 37° C. Thereafter, the viral liquid was discarded. 4. A 2.5% serum-added Eagle MEM containing a test compound and 0.8% methylcellulose was added and the resultant mixture was incubated in a CO2 -incubator for 2-3 days at 37° C. Generally, a test compound is diluted in serial 1/2 log10, and the maximal concentration is 10 μg/ml. 5. The culture liquid was discarded, and the cells were stained with a 0.5% crystal violet solution. Under a stereoscopic light microscope, the number of plaques in each well was counted. Using the equation below, the plaque formation inhibitory ratio (percent inhibition) was obtained. […]

The next test deals with HCMV (AD-169 strain). Nature of the test: Anti-Human Cytomegalovirus activity (plaque formation inhibition in human fetal lung fibroblasts). Format: cell-based. The note with it: Human betaherpesvirus 5, AD169, Fibroblast, 50% inhibition of plaque formation, human fibroblasts derived from fetal lungs, 4 days plus further 4-5 days, read-out: ED50 HCMV. As for the experimental part:
(§2) 1. Human fibroblasts derived from fetal lungs were subjected to subculturing in Eagle MEM supplemented with 10% semi-fetal calf serum (Mitsubishi Chemical Corporation) at a 1:2-4 split every 4 days.
2. A suspension of cells obtained by splitting their parent cells (1:2) was seeded in a 12-well multi-plate (2 ml/well), followed by culturing for 4 days at 37° C. in a CO2 -incubator.
3. The culture liquid was discarded, and 750 μl of a 5% serum-added Eagle MEM containing 50-100 PFU of AD-169 strain of HCMV was inoculated, and the virus was allowed to be adsorbed for 1 hour at 37° C.
4. Without removing the virus, 750 μl of Hanks' MEM containing the test compound was added, and the resultant mixture was incubated in a CO2 -incubator at 37° C. for 4 days. Generally, a test compound is diluted in serial 1/2 log10, and the maximal concentration is 10 μg/ml.
5. The medium was changed to a fresh 2.5% serum-added Eagle MEM containing 0.8% methylcellulose and the test compound having the same concentration, followed by culturing further for 4-5 days.
6. The culture liquid was discarded, and the cells were stained with May-Gruenwald's-Giemsa (×10). Under a stereoscopic light microscope, the number of plaques in each well was counted. Using the equation used in (1) above, the plaque formation inhibitory ratio was obtained.
7. […]

A further test deals with VZV (Oka strain). Nature of the test: Anti-Varicella Zoster Virus (VZV) activity (plaque formation inhibition in human fetal lung fibroblasts). It counts as cell-based. Conditions: Human alphaherpesvirus 3, Fibroblast, read-out: ED50 VZV. As for the experimental part: as §2
2. A suspension of cells obtained by splitting their parent cells (1:2) was seeded in a 12-well multi-plate (2 ml/well), followed by culturing for 4-5 days at 37° C. in a CO2 -incubator.
3. The culture liquid was discarded, and 750 μl of a 5% serum-added Eagle MEM containing 50-100 PFU of Oka strain of VZV was inoculated, and the virus was allowed to be adsorbed for 1 hour at 37° C.
4. Without removing the virus, 750 μl of Hanks' MEM containing the test compound was added, and the resultant mixture was incubated in a CO2 -incubator at 37° C. Generally, a test compound is diluted in serial 1/2 log10, and the maximal concentration is 10 μg/ml.
5. After culturing for 4-5 days, the culture liquid was discarded, and the cells were stained with a 0.5% crystal violet solution. Under a stereoscopic light microscope, the number of plaques in each well was counted. Using the equation used in (1) above, the plaque formation inhibitory ratio was obtained.
6. The plaque formation inhibitory ratio was plotted on a graph with respect to the concentration of the test compound (logarithmic representation).

A further test concerns HSV-1 (VR-3 strain). Briefly: Anti-HSV-1 activity (plaque formation inhibition in human fetal lung fibroblasts). It counts as cell-based, herpes simplex virus type 1. Conditions: Human alphaherpesvirus 1, Fibroblast, 50% inhibition of plaque formation, human fibroblasts derived from fetal lungs, 2-3 days at 37° C., read-out: ED50 HSV-1. As for the experimental part:
as §1

SMILES strings stand for the structures. Values after ≈ are worked out from the molar mass of the structure shown.

With `Nc1nc2c(ncn2[C@@H]2S[C@H](CO)[C@@H](O)[C@@H]2O)c(=O)[nH]1` [Ib-β, 9-(4-thio-δ-D-arabinofuranosyl)guanine], the EC50 in the test on HSV-2 (MS strain) turned out to be 0.59 µg/mL (≈ 1.97 µM); in the test with HCMV (AD-169 strain) it was 0.011 µg/mL; in the test on VZV (Oka strain), 0.11 µg/mL (≈ 0.368 µM); with HSV-1 (VR-3 strain), 0.49 µg/mL (≈ 1.64 µM).
The like results for `Nc1nc(N)c2ncn([C@@H]3S[C@H](CO)[C@@H](O)[C@@H]3O)c2n1` [Ia-β, 9-(4-thio-β-D-arabinofuranosyl)-2,6-diaminopurine] were, in that order, 0.4 µg/mL (≈ 1.34 µM), 0.022 µg/mL, 0.11 µg/mL (≈ 0.369 µM) and 0.52 µg/mL (≈ 1.74 µM).

Source of the values: patent publication US5817639A, “Purine 4'-thioarabinonucleosides” (Yamasa Corporation, priority 1995, dated 1998).
